From ChEMBL document CHEMBL2069252, “Pyrazole diaminopyrimidines as dual inhibitors of KDR and Aurora B kinases” (Bioorg Med Chem Lett, 2012)
≈ marks a conversion by molar mass, not a printed value. Calls of active or inactive are those of the source. The calls are words filed in the database; no cut-off is given here.

Assays:
[1] = biological target: T1, Vascular endothelial growth factor receptor 2 (Homo sapiens, UniProt P35968); assay: Inhibition of human KDR autophosphorylation expressed in mouse NIH/3T3 cells; type: cell-based, NIH3T3
T1 sequence (P35968 whole entry): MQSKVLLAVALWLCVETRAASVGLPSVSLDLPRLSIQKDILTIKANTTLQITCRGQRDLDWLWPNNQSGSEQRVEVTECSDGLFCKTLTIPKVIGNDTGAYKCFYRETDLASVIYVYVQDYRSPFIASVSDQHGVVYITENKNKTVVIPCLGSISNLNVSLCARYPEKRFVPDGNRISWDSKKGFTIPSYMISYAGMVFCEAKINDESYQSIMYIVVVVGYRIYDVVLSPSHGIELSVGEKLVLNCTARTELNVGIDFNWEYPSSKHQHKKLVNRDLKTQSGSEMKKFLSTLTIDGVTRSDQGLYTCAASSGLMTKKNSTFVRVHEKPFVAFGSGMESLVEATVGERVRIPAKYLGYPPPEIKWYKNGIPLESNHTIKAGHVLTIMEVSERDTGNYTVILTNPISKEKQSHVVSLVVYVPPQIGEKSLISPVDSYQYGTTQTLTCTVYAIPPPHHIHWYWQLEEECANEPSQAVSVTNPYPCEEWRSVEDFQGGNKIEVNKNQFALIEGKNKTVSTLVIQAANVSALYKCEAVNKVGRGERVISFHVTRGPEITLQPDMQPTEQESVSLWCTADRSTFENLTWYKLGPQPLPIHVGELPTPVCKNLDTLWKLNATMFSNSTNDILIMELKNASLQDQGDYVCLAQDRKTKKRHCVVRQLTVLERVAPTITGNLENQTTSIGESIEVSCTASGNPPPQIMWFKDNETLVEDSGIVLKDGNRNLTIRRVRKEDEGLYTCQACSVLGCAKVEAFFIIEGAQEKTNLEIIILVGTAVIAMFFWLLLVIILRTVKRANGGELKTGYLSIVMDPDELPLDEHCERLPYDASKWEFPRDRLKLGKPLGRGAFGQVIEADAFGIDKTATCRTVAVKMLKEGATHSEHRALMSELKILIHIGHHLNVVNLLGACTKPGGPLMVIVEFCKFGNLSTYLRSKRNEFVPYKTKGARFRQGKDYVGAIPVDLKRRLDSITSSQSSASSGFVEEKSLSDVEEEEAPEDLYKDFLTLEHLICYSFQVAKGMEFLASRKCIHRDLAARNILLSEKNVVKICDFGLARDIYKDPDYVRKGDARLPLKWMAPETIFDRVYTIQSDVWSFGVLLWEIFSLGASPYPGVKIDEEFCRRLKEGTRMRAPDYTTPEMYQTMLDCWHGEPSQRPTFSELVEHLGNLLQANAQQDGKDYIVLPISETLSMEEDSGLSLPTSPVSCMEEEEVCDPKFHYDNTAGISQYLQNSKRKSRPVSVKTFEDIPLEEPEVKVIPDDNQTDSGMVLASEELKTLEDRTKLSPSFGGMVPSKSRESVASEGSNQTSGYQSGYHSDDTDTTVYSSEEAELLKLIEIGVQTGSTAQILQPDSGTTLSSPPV

NCI-H1299 = assay: Cell cycle arrest in human NCI-H1299 cells assessed as induction of polyploidy after 48 hrs by Hoechst staining-based fluorescence microscopic analysis; type: functional; conditions: NCI-H1299, 48 h
[2] = biological target: T1, Vascular endothelial growth factor receptor 2; assay: Inhibition of KDR by HTRF analysis in presence of 1 mM ATP
[3] = Metabolic stability of the compound in mouse liver microsomes assessed as compound remaining after 30 mins; type: ADME, Microsome; conditions: read-out: Stability
[4] = Aqueous solubility of the compound at pH 7.4 after 24 hrs by chemiluminescent nitrogen detection; type: physicochemical
Aurora kinase B = Aurora kinase B (Homo sapiens, UniProt Q96GD4); assay: Inhibition of Aurora B kinase by HTRF analysis in presence of 1 mM ATP
Aurora kinase B, sequence (Q96GD4 whole entry): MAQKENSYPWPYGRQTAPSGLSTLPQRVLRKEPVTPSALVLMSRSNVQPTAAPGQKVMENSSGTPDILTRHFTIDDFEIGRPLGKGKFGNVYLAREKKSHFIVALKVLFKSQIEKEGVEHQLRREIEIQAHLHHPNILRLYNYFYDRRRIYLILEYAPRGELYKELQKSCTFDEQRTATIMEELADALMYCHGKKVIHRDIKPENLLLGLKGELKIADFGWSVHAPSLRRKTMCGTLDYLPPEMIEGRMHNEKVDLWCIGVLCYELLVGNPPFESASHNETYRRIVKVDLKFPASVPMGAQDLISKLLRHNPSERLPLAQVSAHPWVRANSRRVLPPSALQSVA

[5] = AUC in CD1(ICR) mouse at 10 mg/kg, ip; type: ADME, organism-based; design: dose 10 mg/kg, route intraperitoneal; conditions: plasma
Mus musculus [6] = assay: Toxicity in mouse xenografted with human DOHH2 cells assessed as weight loss at 10 mg/kg, ip administered Q7d for 3 weeks; conditions: in vivo, 504 h
DOHH-2 = conditions: Homo sapiens
Description: Antitumor activity against human DOHH2 cells xenografted in mouse tumor model assessed as tumor growth inhibition at 10 mg/kg, ip administered Q7d for 3 weeks

Mus musculus [7] = assay: Toxicity in mouse xenografted with human DOHH2 cells assessed as mortality at 10 mg/kg, ip administered Q7d for 3 weeks; conditions: in vivo, 504 h

Structure (SMILES)	IC50 [1] [nM]	EC15 (NCI-H1299) [µM]	IC50 [2] [nM]	remaining at 0.5 h [3] [%]	solubility at 24 h [4] [µM]	IC50 (Aurora kinase B) [nM]	AUC [5] [µM·h]	Activity (Mus musculus [6])	TGI (DOHH-2)	Activity (Mus musculus [7])
NC(=O)[C@@H]1[C@H](Nc2nc(Nc3cnn(CCN4CCOCC4)c3)ncc2Cl)[C@H]2C=C[C@@H]1C2	78	< 0.003	9	4	85 (≈ 39 µg/mL)	27	–	–	–	–
NC(=O)[C@@H]1[C@H](Nc2nc(Nc3cnn(Cc4ccccc4)c3)ncc2Cl)[C@H]2C=C[C@@H]1C2	42	< 0.001	7	< 1	4 (≈ 1.74 µg/mL)	12	–	–	–	–
Cn1cc(Nc2ncc([N+](=O)[O-])c(N[C@H]3[C@@H](C(N)=O)[C@@H]4C=C[C@H]3C4)n2)cn1	> 316	0.051	50	–	–	15	–	–	–	–
Cn1cc(Nc2ncc(Cl)c(N[C@H]3[C@H]4CC[C@H](C4)[C@H]3C(N)=O)n2)cn1	> 316	0.015	19	–	–	31	–	–	–	–
NC(=O)[C@@H]1[C@H](Nc2nc(Nc3cnn(CC(=O)O)c3)ncc2Cl)[C@H]2C=C[C@@H]1C2	> 316	0.028	1	> 95	71 (≈ 28.7 µg/mL)	32	–	–	–	–
CNC(=O)Cn1cc(Nc2ncc(Cl)c(N[C@H]3[C@@H](C(N)=O)[C@@H]4C=C[C@H]3C4)n2)cn1	89	0.011	6	88	72 (≈ 30 µg/mL)	26	6.68	–	–	–
NC(=O)[C@@H]1[C@H](Nc2nc(Nc3cnn(CCO)c3)ncc2Cl)[C@H]2C=C[C@@H]1C2	48	< 0.001	6	45	70 (≈ 27.3 µg/mL)	19	5	–	–	–
NC(=O)[C@@H]1[C@H](Nc2nc(Nc3cnn(C4CCNCC4)c3)ncc2Cl)[C@H]2C=C[C@@H]1C2	55	0.001	2	76	68 (≈ 29.2 µg/mL)	12	2	–	–	–
Cn1cc(Nc2ncc(Cl)c(N[C@@H]3CCCC[C@@H]3C(N)=O)n2)cn1	–	–	169	–	–	135	–	–	–	–
Cn1cc(Nc2ncc(Cl)c(N[C@H]3[C@@H](C(N)=O)[C@@H]4CC[C@H]3O4)n2)cn1	–	0.132	693	–	–	118	–	–	–	–
Cn1cc(Nc2ncc(C(F)(F)F)c(N[C@H]3C[C@@H]4CC[C@H]3C4)n2)cn1	–	> 0.3	827	–	–	61	–	–	–	–
Cn1cc(Nc2ncc(C(F)(F)F)c(N[C@H]3[C@@H](C(=O)NCCO)[C@@H]4C=C[C@H]3C4)n2)cn1	–	< 0.001	266	–	–	99	–	–	–	–
NC(=O)[C@@H]1[C@H](Nc2nc(Nc3cnn([C@@H]4CCCNC4)c3)ncc2Cl)[C@H]2C=C[C@@H]1C2	44	0.001	2	48	70 (≈ 30 µg/mL)	12	15.7	–	–	–
Cn1cc(Nc2ncc(C(F)(F)F)c(N[C@H]3[C@@H](C(=O)NC4CC4)[C@@H]4C=C[C@H]3C4)n2)cn1	–	< 0.001	292	–	–	51	–	–	–	–
Cn1cc(Nc2ncc(Cl)c(N[C@@H]3CC[C@@H]3C(N)=O)n2)cn1	–	0.093	153	–	–	44	–	–	–	–
Cn1cc(Nc2nccc(N[C@H]3[C@@H](C(N)=O)[C@@H]4C=C[C@H]3C4)n2)cn1	–	0.093	> 12000	–	–	294	–	–	–	–
Cn1cc(Nc2ncc(C(F)(F)F)c(N[C@H]3[C@@H](C(N)=O)[C@@H]4C=C[C@H]3C4)n2)cn1	35	0.003	12	–	–	28	–	–	–	–

Structure (SMILES)	IC50 [1] [nM]	EC15 (NCI-H1299) [µM]	IC50 [2] [nM]	remaining at 0.5 h [3] [%]	solubility at 24 h [4] [µM]	IC50 (Aurora kinase B) [nM]	AUC [5] [µM·h]	Activity (Mus musculus [6])	TGI (DOHH-2)	Activity (Mus musculus [7])
NC(=O)[C@@H]1[C@H](Nc2nc(Nc3cnn(C[C@H]4CCCN4)c3)ncc2Cl)[C@H]2C=C[C@@H]1C2	49	0.011	15	48	86 (≈ 36.9 µg/mL)	15	12.7	–	–	–
Cn1cc(Nc2ncc(C(F)(F)F)c(Nc3ccccc3C(N)=O)n2)cn1	–	0.011	431	–	–	16	–	–	–	–
Cn1cc(Nc2ncc(F)c(N[C@H]3[C@@H](C(N)=O)[C@@H]4C=C[C@H]3C4)n2)cn1	–	0.111	329	–	–	29	–	–	–	–
Cn1cc(Nc2ncc(C(F)(F)F)c(N[C@H]3[C@@H](C(N)=O)C[C@H]4C[C@@H]3C4(C)C)n2)cn1	–	0.039	264	–	–	43	–	–	–	–
Cc1cc(Nc2ncc(F)c(N[C@H]3[C@@H](C(N)=O)[C@@H]4C=C[C@H]3C4)n2)ccc1N1CCN(C)CC1	–	0.001	–	–	–	54	–	–	–	–
Cn1cc(Nc2ncc(Cl)c(N[C@H]3[C@@H](C(N)=O)[C@@H]4C=C[C@H]3C4)n2)cn1	20	< 0.003	14	44	78 (≈ 28.1 µg/mL)	29	11.1	Toxic	Active	Toxic
Cn1cc(Nc2ncc(C(F)(F)F)c(N[C@@H]3[C@H]4CC[C@H](C4)[C@@H]3C(N)=O)n2)cn1	61	0.01	74	–	–	66	–	–	–	–
Cc1cnc(Nc2cnn(C)c2)nc1N[C@H]1[C@@H](C(N)=O)[C@@H]2C=C[C@H]1C2	–	0.011	467	–	–	252	–	–	–	–
Cn1cc(Nc2ncc(Cl)c(N[C@@H]3CCC[C@@H]3C(N)=O)n2)cn1	–	0.062	246	–	–	32	–	–	–	–
CCn1cc(Nc2ncc(Cl)c(N[C@H]3[C@@H](C(N)=O)[C@@H]4C=C[C@H]3C4)n2)cn1	8	< 0.001	3	13	70 (≈ 26.2 µg/mL)	8	2.54	–	–	–
Cn1cc(Nc2ncc(Cl)c(N[C@@H]3[C@H]4CC[C@H](C4)[C@@H]3C(N)=O)n2)cn1	84	0.001	19	–	–	8	–	–	–	–
CNC(=O)[C@@H]1[C@H](Nc2nc(Nc3cnn(C)c3)ncc2C(F)(F)F)[C@H]2C=C[C@@H]1C2	> 316	< 0.001	68	–	–	45	–	–	–	–
Nc1ncc(-c2cnn(CCO)c2)c2scc(-c3ccc(NC(=O)Nc4cccc(F)c4)cc3)c12 [ILORASERTIB]	–	0.012	–	–	–	–	–	–	–	–
Cn1cc(Nc2ncc(C(N)=O)c(N[C@H]3[C@@H](C(N)=O)[C@@H]4C=C[C@H]3C4)n2)cn1	–	–	1540	–	–	197	–	–	–	–
COc1cnc(Nc2cnn(C)c2)nc1N[C@H]1[C@@H](C(N)=O)[C@@H]2C=C[C@H]1C2	–	–	922	–	–	145	–	–	–	–
NC(=O)Cn1cc(Nc2ncc(Cl)c(N[C@H]3[C@@H](C(N)=O)[C@@H]4C=C[C@H]3C4)n2)cn1	167	0.019	18	68	68 (≈ 27.4 µg/mL)	25	15	–	–	–
